Experimental data taken from PubChem BioAssay AID342 (DTP/NCI, 2004).
Values joined by “and” are separate entries in the source; they are usually repeats but may differ in a detail not shown here. Equal entries are not always repeated.

System: Swiss mice, Sarcoma 180 sc, mean tumor weight T/C
Assay: NCI In Vivo Anticancer Drug Screen. Data for tumor model Sarcoma 180 (subcutaneous) in Swiss mice
Conditions: endpoint: mean tumor weight, higher = larger tumour
Method in brief: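 Mice bearing transplanted tumors were treated with compound, and survival or tumor size was measured. Values are expressed as the treated-group measurement (T) divided by the vehicle-treated control measurement (C).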

[1] = dose: 250.0 mg/kg/injection, schedule: Q01DX007 (ip), vehicle: other
[2] = dose: 100.0 mg/kg/injection, schedule: Q01DX007 (ip), vehicle: water

For `CO[C@@]12[C@H](COC(N)=O)C3=C(C(=O)C(C)=C(N)C3=O)N1C[C@@H]1N[C@@H]12`, the T/C (dose: 0.12 mg/kg/injection, schedule: Q#A X014 (ip), vehicle: carboxymethylcellulose (CMC)) was 113 % of control, the T/C (dose: 0.25 mg/kg/injection, schedule: Q#A X014 (ip), vehicle: carboxymethylcellulose (CMC)) was 73 % of control and the T/C (dose: 0.5 mg/kg/injection, schedule: Q#A X014 (ip), vehicle: carboxymethylcellulose (CMC)) was 57 % of control. The T/C (dose: 1.5 mg/kg/injection, schedule: Q#A X014 (ip), vehicle: carboxymethylcellulose (CMC)) was 39 % of control, the T/C (dose: 2.0 mg/kg/injection, schedule: Q#A X014 (ip), vehicle: carboxymethylcellulose (CMC)) was 17 % of control and the T/C (dose: 262.0 micrograms/kg/injection, schedule: Q01DX007 (ip), vehicle: carboxymethylcellulose (CMC)) was 69 % of control. For the same compound, the T/C (dose: 525.0 micrograms/kg/injection, schedule: Q01DX007 (ip), vehicle: carboxymethylcellulose (CMC)) was 98 % of control, the T/C (dose: 1050.0 micrograms/kg/injection, schedule: Q01DX007 (ip), vehicle: carboxymethylcellulose (CMC)) was 84 % of control and the T/C (dose: 2100.0 micrograms/kg/injection, schedule: Q01DX007 (ip), vehicle: carboxymethylcellulose (CMC)) was 49 % of control.

With `CNCCc1ccccc1` the T/C (dose: 110.0 mg/kg/injection, schedule: Q01DX007 (ip), vehicle: saline) was 77 % of control.

For `CC(=O)Nc1cc2c(cc1Br)-c1ccccc1C2O` (configuration not stated), the T/C (dose: 48.0 mg/kg/injection, schedule: Q01DX007 (ip), vehicle: other) was 60 % of control, the T/C (dose: 73.0 mg/kg/injection, schedule: Q01DX007 (ip), vehicle: other) was 93 % of control and the T/C (dose: 130.0 mg/kg/injection, schedule: Q01DX007 (ip), vehicle: saline) was 40 % of control and 56 % of control. For the same compound, the T/C (dose: 195.0 mg/kg/injection, schedule: Q01DX007 (ip), vehicle: saline) was 107 % of control, the T/C [1] was 36 % of control and the T/C (dose: 375.0 mg/kg/injection, schedule: Q01DX007 (ip), vehicle: other) was 46 % of control. For the same compound, the T/C (dose: 560.0 mg/kg/injection, schedule: Q01DX007 (ip), vehicle: other) was 32 % of control.

In the case of `CC1=NCCc2c1cc1c([nH]c3ccccc31)c2C`, the T/C (dose: 25.0 mg/kg/injection, schedule: Q01DX007 (ip), vehicle: water) was 108 % of control, the T/C (dose: 50.0 mg/kg/injection, schedule: Q01DX007 (ip), vehicle: water) was 91 % of control and the T/C [2] was 72 % of control. For the same compound, the T/C (dose: 200.0 mg/kg/injection, schedule: Q01DX007 (ip), vehicle: water) was 28 % of control.

`CC(C)(c1ccccc1)c1ccc(O)cc1` was tested, and the T/C (dose: 37.5 mg/kg/injection, schedule: Q01DX007 (ip), vehicle: carboxymethylcellulose (CMC)) was 64 % of control, the T/C (dose: 75.0 mg/kg/injection, schedule: Q01DX007 (ip), vehicle: carboxymethylcellulose (CMC)) was 73 % of control and the T/C (dose: 150.0 mg/kg/injection, schedule: Q01DX007 (ip), vehicle: carboxymethylcellulose (CMC)) was 44 % of control.

With `CN(C)c1ccc(/C=C/c2ccnc3ccccc23)cc1` the T/C (dose: 15.5 mg/kg/injection, schedule: Q01DX007 (ip), vehicle: water) was 82 % of control and the T/C (dose: 62.0 mg/kg/injection, schedule: Q01DX007 (ip), vehicle: carboxymethylcellulose (CMC)) was 86 % of control.

For `C[C@@H]1CC2=CC(=O)C=C[C@]2(C)[C@H]2CC[C@@]3(C)[C@@H](CC[C@]3(C)O)[C@H]12`, the T/C (dose: 111.0 mg/kg/injection, schedule: Q01DX007 (sc), vehicle: steriod suspending solution) was 61 % of control and 72 % of control, the T/C (dose: 167.0 mg/kg/injection, schedule: Q01DX007 (sc), vehicle: steriod suspending solution) was 43 % of control and 62 % of control and the T/C (dose: 250.0 mg/kg/injection, schedule: Q01DX007 (sc), vehicle: steriod suspending solution) was 57 % of control and 76 % of control. The T/C (dose: 375.0 mg/kg/injection, schedule: Q01DX007 (sc), vehicle: steriod suspending solution) was 38 % of control and 42 % of control and 55 % of control and the T/C (dose: 750.0 mg/kg/injection, schedule: Q01DX007 (sc), vehicle: steriod suspending solution) was 47 % of control and 69 % of control.

For `CCc1nc(N)nc(N)c1-c1ccc(Cl)c(Cl)c1.O.O.[Zn]`, the T/C (dose: 1.5 mg/kg/injection, schedule: Q01DX007 (ip), vehicle: carboxymethylcellulose (CMC)) was 62 % of control, the T/C (dose: 2.3 mg/kg/injection, schedule: Q01DX007 (ip), vehicle: carboxymethylcellulose (CMC)) was 65 % of control and the T/C (dose: 3.5 mg/kg/injection, schedule: Q01DX007 (ip), vehicle: carboxymethylcellulose (CMC)) was 46 % of control. For the same compound, the T/C (dose: 8.0 mg/kg/injection, schedule: Q01DX007 (ip), vehicle: carboxymethylcellulose (CMC)) was 39 % of control and the T/C (dose: 12.0 mg/kg/injection, schedule: Q01DX007 (ip), vehicle: carboxymethylcellulose (CMC)) was 18 % of control.

In the case of `CC(=O)OC(C)(C)/C=C/C(=O)[C@](C)(O)[C@H]1[C@H](O)C[C@@]2(C)[C@@H]3CC=C4[C@@H](C[C@H](O)C(=O)C4(C)C)[C@]3(C)C(=O)C[C@]12C`, the T/C (dose: 0.4 mg/kg/injection, schedule: Q01DX007 (ip), vehicle: saline) was 58 % of control and the T/C (dose: 0.8 mg/kg/injection, schedule: Q01DX007 (ip), vehicle: saline) was 84 % of control.

With `NC(=O)Nc1n[se]nc1C(=O)O` the T/C (dose: 20.0 mg/kg/injection, schedule: Q01DX007 (ip), vehicle: saline) was 111 % of control and the T/C (dose: 30.0 mg/kg/injection, schedule: Q01DX007 (ip), vehicle: saline) was 75 % of control.

In the case of `COC1C(O)CC(=O)OC(C)C/C=C/C=C/C(OC2CCC(N(C)C)C(C)O2)C(C)CC(CC=O)C1OC1OC(C)C(OC2CC(C)(O)C(O)C(C)O2)C(N(C)C)C1O` (configuration not stated), the T/C (dose: 44.0 mg/kg/injection, schedule: Q01DX007 (ip), vehicle: water) was 124 % of control, the T/C (dose: 66.0 mg/kg/injection, schedule: Q01DX007 (ip), vehicle: water) was 85 % of control and the T/C [2] was 123 % of control. The T/C (dose: 150.0 mg/kg/injection, schedule: Q01DX007 (ip), vehicle: water) was 95 % of control, the T/C (dose: 225.0 mg/kg/injection, schedule: Q01DX007 (ip), vehicle: water) was 110 % of control and the T/C (dose: 337.0 mg/kg/injection, schedule: Q01DX007 (ip), vehicle: water) was 72 % of control.

For `CC(C)Sc1nc(N)nc2c1ncn2C1OC(CO)C(O)C1O` (configuration not stated), the T/C (dose: 1.35 mg/kg/injection, schedule: Q#A X014 (ip), vehicle: methylcellulose (MC)) was 69 % of control, the T/C (dose: 2.05 mg/kg/injection, schedule: Q#A X014 (ip), vehicle: methylcellulose (MC)) was 95 % of control and the T/C (dose: 3.12 mg/kg/injection, schedule: Q#A X014 (ip), vehicle: methylcellulose (MC)) was 53 % of control. For the same compound, the T/C (dose: 4.65 mg/kg/injection, schedule: Q#A X014 (ip), vehicle: methylcellulose (MC)) was 86 % of control.

`CC(/C=N\N=C(N)N)=N/N=C(N)N` was tested, and the T/C (dose: 42.1 mg/kg/injection, schedule: Q01DX007 (ip), vehicle: carboxymethylcellulose (CMC)) was 113 % of control.

With `CCOC(=O)Nc1ccc2c(c1)/C(=N\NC(N)=S)c1ccccc1-2` the T/C (dose: 5.0 mg/kg/injection, schedule: Q01DX007 (ip), vehicle: carboxymethylcellulose (CMC)) was 86 % of control, the T/C (dose: 15.0 mg/kg/injection, schedule: Q01DX007 (ip), vehicle: carboxymethylcellulose (CMC)) was 44 % of control and the T/C (dose: 30.0 mg/kg/injection, schedule: Q01DX007 (ip), vehicle: carboxymethylcellulose (CMC)) was 55 % of control. The T/C (dose: 49.0 mg/kg/injection, schedule: Q01DX007 (ip), vehicle: carboxymethylcellulose (CMC)) was 85 % of control, the T/C (dose: 60.0 mg/kg/injection, schedule: Q01DX007 (ip), vehicle: carboxymethylcellulose (CMC)) was 63 % of control and the T/C (dose: 73.0 mg/kg/injection, schedule: Q01DX007 (ip), vehicle: carboxymethylcellulose (CMC)) was 63 % of control. The T/C (dose: 110.0 mg/kg/injection, schedule: Q01DX007 (ip), vehicle: carboxymethylcellulose (CMC)) was 112 % of control.

In the case of `COc1ccc2c(=O)oc3c(OC)cc(CCN(C)C)c4c(=O)oc1c2c34`, the T/C (dose: 0.8 mg/kg/injection, schedule: Q01DX007 (ip), vehicle: water) was 113 % of control, the T/C (dose: 1.6 mg/kg/injection, schedule: Q01DX007 (ip), vehicle: water) was 77 % of control and the T/C (dose: 3.2 mg/kg/injection, schedule: Q01DX007 (ip), vehicle: water) was 108 % of control. For the same compound, the T/C (dose: 6.3 mg/kg/injection, schedule: Q01DX007 (ip), vehicle: water) was 86 % of control.

For `N#Cc1ccc(S(N)(=O)=O)cc1`, the T/C (dose: 30.0 mg/kg/injection, schedule: Q01DX007 (ip), vehicle: alkali diluted with saline) was 76 % of control, the T/C (dose: 33.0 mg/kg/injection, schedule: Q01DX007 (ip), vehicle: other) was 70 % of control and the T/C (dose: 44.0 mg/kg/injection, schedule: Q01DX007 (ip), vehicle: alkali diluted with saline) was 71 % of control. The T/C (dose: 49.0 mg/kg/injection, schedule: Q01DX007 (ip), vehicle: other) was 68 % of control, the T/C (dose: 66.0 mg/kg/injection, schedule: Q01DX007 (ip), vehicle: alkali diluted with saline) was 54 % of control and the T/C (dose: 74.0 mg/kg/injection, schedule: Q01DX007 (ip), vehicle: other) was 59 % of control. For the same compound, the T/C (dose: 100.0 mg/kg/injection, schedule: Q01DX007 (ip), vehicle: alkali diluted with saline) was 39 % of control, the T/C (dose: 111.0 mg/kg/injection, schedule: Q01DX007 (ip), vehicle: other) was 45 % of control and 60 % of control and the T/C (dose: 166.0 mg/kg/injection, schedule: Q01DX007 (ip), vehicle: other) was 34 % of control. For the same compound, the T/C [1] was 13 % of control.
